How the values were obtained:
[1] = molecular target: T1, Mitogen-activated protein kinase kinase kinase 14 (Homo sapiens, UniProt Q99558); test: Inhibition of human recombinant GST-fused NIK expressed in Sf9 cells after 60 mins by radiometric protein kinase assay
Target sequence in this assay (Q99558 whole entry, the tested form may be a part): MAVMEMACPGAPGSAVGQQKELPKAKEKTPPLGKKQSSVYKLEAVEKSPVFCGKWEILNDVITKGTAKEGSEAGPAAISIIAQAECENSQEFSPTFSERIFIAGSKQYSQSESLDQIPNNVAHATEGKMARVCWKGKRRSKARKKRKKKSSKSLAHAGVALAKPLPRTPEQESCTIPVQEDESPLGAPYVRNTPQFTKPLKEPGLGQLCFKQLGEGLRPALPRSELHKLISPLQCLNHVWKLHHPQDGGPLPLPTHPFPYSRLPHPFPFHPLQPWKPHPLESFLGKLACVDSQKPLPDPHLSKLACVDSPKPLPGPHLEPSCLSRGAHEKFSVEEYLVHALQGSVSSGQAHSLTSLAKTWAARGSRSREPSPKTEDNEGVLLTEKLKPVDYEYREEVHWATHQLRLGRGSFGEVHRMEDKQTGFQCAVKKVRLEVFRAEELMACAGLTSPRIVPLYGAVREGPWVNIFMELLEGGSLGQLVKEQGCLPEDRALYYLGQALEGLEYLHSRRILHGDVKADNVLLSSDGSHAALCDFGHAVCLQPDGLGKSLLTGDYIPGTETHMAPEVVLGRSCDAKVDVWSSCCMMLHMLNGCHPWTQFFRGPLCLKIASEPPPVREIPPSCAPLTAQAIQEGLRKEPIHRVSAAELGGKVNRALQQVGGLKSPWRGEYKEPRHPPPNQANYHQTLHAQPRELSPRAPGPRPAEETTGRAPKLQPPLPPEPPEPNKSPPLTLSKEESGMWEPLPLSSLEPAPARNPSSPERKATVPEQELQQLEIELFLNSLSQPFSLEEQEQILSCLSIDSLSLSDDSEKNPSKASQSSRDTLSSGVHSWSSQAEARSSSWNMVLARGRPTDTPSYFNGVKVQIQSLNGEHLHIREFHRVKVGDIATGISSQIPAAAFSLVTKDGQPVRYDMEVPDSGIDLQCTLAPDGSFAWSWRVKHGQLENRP

[2] = molecular target: T1, Mitogen-activated protein kinase kinase kinase 14; test: Inhibition of human recombinant GST-fused NIK expressed in Sf9 cells at 50 uM after 60 mins by radiometric protein kinase assay
Target sequence in this assay (Q99558 whole entry, looked up, the tested form may be a part): as the sequence (Q99558 whole entry, the tested form may be a part) above

Structure (SMILES) | IC50 [1] | inhibition [2]
O=C1Cc2ccccc2CN1 | > 100 µM | –
O=c1[nH]c(=O)c2c(Cl)cc(Cl)cc2[nH]1 | > 100 µM | –
O=C1NC(=O)c2ccccc2/C1=C\c1cccs1 | > 100 µM | 25%
CC1=CC(=O)c2c(O)cccc2C1=O [PLUMBAGIN] | > 100 µM | 60%
O=C1CC2CC(=O)NC(=O)C2C(=O)N1 (stereo unspecified) | 90 µM | 53%
CCO/C=C1/C(=O)NC(=O)c2ccccc21 | > 50 µM | 44%
O=C1Cc2ccccc2C(=O)N1 | 51 µM | 60%
CN(C)c1ccc(CNC(=O)Cn2c(=O)[nH]c(=O)c3ccccc32)cc1 | – | < 15%

Other lines, results leading:

IC50 [1] | inhibition [2] | Structure (SMILES)
– | < 15% | CCOC(=O)N1CCC(NC(=O)Cn2c(=O)[nH]c(=O)c3ccccc32)CC1
– | < 15% | CC(NC(=O)Cn1c(=O)[nH]c(=O)c2ccccc21)c1cccs1 (stereo unspecified)
– | < 15% | O=C(Cn1c(=O)[nH]c(=O)c2ccccc21)NCc1ccccn1

Source: ChEMBL document CHEMBL1208710, “NF-kappaB inducing kinase (NIK) inhibitors: identification of new scaffolds using virtual screening” (Bioorg Med Chem Lett, 2010)
